According to patent US20250017206A1, “METHODS FOR PREVENTING OR REDUCING BACTERIAL INFECTION OF PLANT SEEDS” (priority 2022, published 2025):
“Also recorded” adds a separate entry of the source.

Tests used:
Acidovorax citrulli = assay: A. citrulli growth on LB agar growth medium containing tea, extracts or compounds; format: cell-based; settings: for inhibition of A. citrulli (summary): compound alone in culture
Experimental: A. citrulli growth on LB agar medium was assessed after treatment with commercial brands of black and green teas and their constituent compounds to determine inhibitory effects. Dried loose tea leaves were boiled in distilled water, strained, and liquid added to LB agar growth medium to assess concentration effects. Five grams of loose-leaf tea was autoclaved in 200 mL distilled water for 25 minutes in the liquid cycle. After autoclaving, the tea was cooled to room temperature and filtered using Whatman #1 filter paper. The filtered tea was adjusted by spectrophotometry (DU 800, Beckman Coulter) to 4.0, 3.0, 2.0, 1.0, and 0.5 at OD390.
Luria Broth (LB) agar growth medium was prepared by mixing 10 grams of tryptone, 5 grams of yeast extract, and 10 grams of sodium chloride, and 15 grams of Bacto™ Agar Solidifying Agent (BD Diagnostics) in 1 liter of distilled water (pH: 7.5) before autoclaving. Collected bacteria were resuspended in autoclave-sterilized 10 mM MgCl2, and adjusted to 1.0, 0.5, 0.1, 0.01, and 0.001 OD600 spectrophotometry.
1 mL of each standard compound was added to 10 mL of LB agar growth medium.
Growth curve on growth medium containing inhibitory extracts and compounds to test whether Acidovorax citrulli could grow in the presence of green and black teas and some of their constituents, growth analysis was conducted in Petri dishes on solid LB agar containing tea or its extracts to quantitate bacterial growth inhibition. We also wanted to see whether tea and its constituents affected antibiotic resistance by comparing growth on both LB agar and Rifampicin containing LB agar. […] For the second stage, effects were verified by blotting 20 μL of inoculum with 9 1:10 serial dilutions to be able to count bacterial colonies. After growth medium solidified, 5 μL of bacterial inoculum adjusted at OD600: to 1.0, 0.5, 0.1, 0.01, or 0.001 (at first stage) and 20 μL of bacterial inoculum adjusted to OD600: 10^0, 10^−1, 10^−2, 10^−3, 10^−4, 10^−5, 10^−6, 10^−7, 10^−8, 10^−9 were blotted on the LB agar growth medium, containing tea samples or other extracts (1:10 mL). The Petri dishes inoculated with bacteria were incubated at 28° C. for 72 h in dark. Autoclaved distilled water was added to growth medium in a separate replicate with 5 μL of 10 mM MgCl2 and bacteria as a negative control. In order to check if additional distilled water affected bacterial growth, growth on LB medium with and without water was compared. Results were compared by colonies. When colonies could not be separated, bacterial growth was scored between 1 and 0 depending on the amount of growth on the surface of the blot.

[1] = tested on: A. citrulli strain AAC00-1; settings: components of cinnamon oil; Choi et al. (2016); cited from earlier work

Compound: O=C(O[C@@H]1Cc2c(O)cc(O)cc2O[C@@H]1c1ccc(O)c(O)c1)c1cc(O)c(O)c(O)c1 [ECG, epicatechin gallate, reference compound]
- bacterial growth at 0.5 mM (Acidovorax citrulli; 0.5 mM, AA000-1, maximum bacterial concentration OD600 0.01): inhibited bacterial growth
- bacterial growth at 1.5 mM (Acidovorax citrulli; AAC00-1, 1.5 mM, bacterial OD600 1.0): completely inhibitory; also recorded: inhibited all bacterial growth

Compound: Oc1cc(O)c2c(c1)O[C@H](c1cc(O)c(O)c(O)c1)[C@H](O)C2 [EGC, epigallocatechin, reference compound]
- bacterial growth at 1 mM EGC (Acidovorax citrulli; 1 mM, bacteria OD600 0.1 and 0.01): efficient inhibitor; also recorded: inhibited bacterial growth on 0.1 dilution of bacteria
- bacterial growth at 0.5-1-1.5 mM EGC (Acidovorax citrulli; AAC00-1 OD600 1.0-0.001, 0.5-1-1.5 mM): did not show inhibitory effects; also recorded: showed no inhibition
- minimum concentration required for inhibition (Acidovorax citrulli; bacterial concentration OD600 0.001, AAC00-1): 0.5 mM

Compound: Cn1c(=O)c2c(ncn2C)n(C)c1=O [caffeine, reference compound]
- inhibition of A. citrulli (summary) (Acidovorax citrulli): not inhibitory

Compound: O=CC=Cc1ccccc1 [cinnamaldehyde]
- antibacterial activities against strain AAC00-1 [1]: exhibited antibacterial activities

Compound: O=Cc1ccccc1 [benzaldehyde]
- antibacterial activities against strain AAC00-1 [1]: exhibited antibacterial activities

Compound: catechin
- bacterial colony growth at 10 mM catechin (Acidovorax citrulli; AAC00-1, 0.1, 1, 10 mM compared, only 10 mM inhibitory, with or without rifampicin): inhibitory; also recorded: inhibited bacterial growth
- effect of antibiotic presence on bacterial colony growth inhibition by catechin (Acidovorax citrulli; AAC00-1, catechin 0.1, 1, 10 mM, with or without rifampicin 100 μg/mL): No difference
- bacterial growth at 5-10-15 mM (Acidovorax citrulli; AAC00-1 OD600 1.0-0.001, 5-10-15 mM): inhibited all bacterial growth
- inhibition of A. citrulli (summary) (Acidovorax citrulli): strongly inhibitory
- bacterial colony growth at 1 mM (Acidovorax citrulli; final concentration 1 mM in LB agar with rifampicin 100 μg/mL, M6, AAC00-1, aacI, aacR, OD600 1.0-0.001): inhibited A. citrulli; also recorded: inhibited some lower density colonies of bacteria
- bacterial colony growth at 10 mM (Acidovorax citrulli; final concentration 10 mM in LB agar with rifampicin 100 μg/mL, M6, AAC00-1, aacI, aacR, OD600 1.0-0.001): inhibited A. citrulli; also recorded: completely inhibited bacterial growth; also recorded: inhibited growth of all bacterial strains
- less A. citrulli growth in catechin treatments compared to caffeine treatment (Acidovorax citrulli; overall, 3-Way ANOVA, 95% significance level): ~25%
- inhibition of A. citrulli compared with black tea and caffeine (Acidovorax citrulli; preliminary, data not shown): greater than black tea and caffeine
